Data on one molecule can be found in paper PMC10349806 (Nature Communications, 2023).

Several values for one entry are separate records, joined by “and”; a condition that tells them apart may be missing. Equal values may be shown once.

One assay deals with T1, PfCRT variant E232A (Plasmodium falciparum, UniProt Q9N623, A220S/E232A/I356T/K76T/M74I/N326S/N75E/Q271E/R371I).
T1 sequence (Q9N623 1-424 M74I/N75E/K76T/A220S/E232A/Q271E/N326S/I356T/R371I): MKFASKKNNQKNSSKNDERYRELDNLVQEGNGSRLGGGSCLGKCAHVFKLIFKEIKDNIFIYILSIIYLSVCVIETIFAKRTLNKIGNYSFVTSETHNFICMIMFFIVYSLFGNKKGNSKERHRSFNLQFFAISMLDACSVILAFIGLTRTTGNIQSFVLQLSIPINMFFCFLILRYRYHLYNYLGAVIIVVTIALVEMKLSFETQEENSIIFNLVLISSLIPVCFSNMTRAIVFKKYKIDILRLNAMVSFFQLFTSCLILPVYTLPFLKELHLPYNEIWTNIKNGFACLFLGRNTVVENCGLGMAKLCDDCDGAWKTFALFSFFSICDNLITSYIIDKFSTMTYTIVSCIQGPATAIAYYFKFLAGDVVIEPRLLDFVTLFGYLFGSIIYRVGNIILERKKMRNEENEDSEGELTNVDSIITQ
The assay can be described thus: CQ uptake assay, oocytes expressing E232A. The class given is cell-based. On the procedure:
(§1) Site-directed mutagenesis of PfCRT^Dd2 was performed as described using the megaprimer method with overlap extension[21],[54]. The primer pairs used are listed in Supplementary Table 6. Please note that a codon-optimized and oocyte-adapted version of PfCRT^Dd2 was used[22] (Supplementary Fig. 16). The resulting DNA fragment was cloned into the SP64T expression vector and verified by sequencing.
(§2) Oocytes were obtained as described previously. Briefly, adult (>2 years old) female X. laevis frogs (NASCO) were anesthetized in a cooled solution of ethyl 3-amino benzoate methanesulfonate (0.1%, w/v), followed by a surgical removal of parts of the ovary. The ovary lobes were carefully dissected and small pieces of oocytes were incubated in Ca^2+-free ND96 buffer (96 mM NaCl, 2 mM KCl, 1 mM MgCl2 buffered with 5 mM HEPES/NaOH, pH 7.5) supplemented with collagenase D (0.1%, w/v; Roche), BSA (0.5%, w/v), and 9 mm Na2HPO4 at 18 °C for 14-16 h while gentle shaking. After incubation, the oocytes were carefully washed several times with ND96 buffer (96 mM NaCl, 2 mM KCl, 1.8 mM CaCl2, 1 mM MgCl2 buffered with 5 mM HEPES/NaOH, pH 7.5) supplemented with 100 mg l^−1 gentamycin). Defolliculated and healthy-looking stage V-VI oocytes were manually selected for RNA microinjection. The RNA was generated as following: The codon-optimized sequences of PfCRT variants were cloned into the pSP64T expression vector. After vector linearization using the restriction endonucleases BamHI or SalI (New England Biolabs), transcription was performed using the in vitro SP6 mMessage mMachine Kit (Ambion)[34]. The obtained RNA was kept at −80 °C and diluted with nuclease-free water to a concentration of 0.6 μg μl^−1. Precision-bore glass capillary tubes (3.5-inch glass capillaries; Drummond Scientific Co.) were pulled on a vertical puller (P-87 Flaming/Brown micropipette puller, Sutter Instrument Co.), graduated, and placed on a microinjector (Nanoject II Auto-Nanoliter Injector, Drummond Scientific Co.). 50 nl of nuclease-free water alone (control oocytes) or 50 nl of 0.6 μg μl^−1 RNA were injected under stereomicroscopic control. Injected oocytes were incubated for 46–72 h at 18 °C with twice-daily buffer changes before usage in experiments.
Drug uptake assays were performed as described previously[21],[22],[24],[34]. […] The direction of radio-labeled drug transport is here from the mostly acidic extracellular solution (pH 4.5 or 6.0, as indicated) into the oocyte cytosol (pH ∼ 7.2), which corresponds to the efflux of drug from the acidic digestive vacuole (pH 5.2) into the parasite cytoplasm (pH 7.2). The topology of PfCRT in the oolemma is such that both the N- and C-terminus face the extracellular milieu[3],[22]. In the parasite, the N- and C-terminus face the lumen of the digestive vacuole. […] For determination of the amount of drug uptake for each oocyte, the reaction medium was removed and the oocytes were washed three times with 2 ml of ice-cold ND96 buffer. Each oocyte was individually transferred to a scintillation vial containing 5% sodium dodecyl sulfate (200 μl) for lysis. […] Oocytes that were injected with water instead of RNA were analyzed in parallel, representing the uptake of a drug by diffusion and/or endogenous permeation pathways. […] The specific PfCRT-mediated uptake was determined by subtracting the corresponding background value measured in water-injected oocytes from that of PfCRT-expressing oocytes. […]

The subject of another assay is PfCRT variant E207P. The assay can be described thus: CQ uptake assay, oocytes expressing E207P. The class given is cell-based, Plasmodium falciparum. The method, then: as §1, §2
Drug uptake assays were performed as described previously[21],[22],[24],[34]. […] The direction of radio-labeled drug transport is here from the mostly acidic extracellular solution (pH 4.5 or 6.0, as indicated) into the oocyte cytosol (pH ∼ 7.2), which corresponds to the efflux of drug from the acidic digestive vacuole (pH 5.2) into the parasite cytoplasm (pH 7.2). The topology of PfCRT in the oolemma is such that both the N- and C-terminus face the extracellular milieu[3],[22]. In the parasite, the N- and C-terminus face the lumen of the digestive vacuole. CQ uptake kinetics were performed by incubating oocytes in ND96 buffer adjusted to a pH of 4.5, 5.0, 5.5, or 6.0 and supplemented with 50 nM [^3H]CQ and one of 7 different CQ concentrations (10 µM, 50 µM, 100 µM, 200 µM, 300 µM, 400 µM, 500 µM CQ). The reaction was stopped at the 60 min time point, which is in the linear uptake range[22],[34] (Supplementary Fig. 17). For determination of the amount of drug uptake for each oocyte, the reaction medium was removed and the oocytes were washed three times with 2 ml of ice-cold ND96 buffer. Each oocyte was individually transferred to a scintillation vial containing 5% sodium dodecyl sulfate (200 μl) for lysis. The radioactivity of each sample was measured using a liquid scintillation analyzer Tri-Carb 4910 TR (PerkinElmer). Oocytes that were injected with water instead of RNA were analyzed in parallel, representing the uptake of a drug by diffusion and/or endogenous permeation pathways. The resulting value represents the “background“ level of drug accumulation in oocytes (in-depth discussion in[22]). […]

[1] abbreviates: E207P, 50 µM CQ, 1 h, mean ± SEM.

For the molecule `CCN(CC)CCCC(C)Nc1ccnc2cc(Cl)ccc12` (centres unmarked) [CQ, chloroquine], the “Activity at pH 4.5” value at PfCRT variant E232A (E232A, 50 µM CQ, 1 h, mean ± SEM) was 1.07 ± 0.12 pmol h-1 oocyte-1; with PfCRT variant E207P (setting [1]), 2.31 ± 0.3 pmol h-1 oocyte-1. In addition, the R-value was 0.65 ± 0.06 on PfCRT variant E232A (E232A, CQ transport at pH 4.5 / pH 6.0) and 0.93 ± 0.05 in the assay on PfCRT variant E207P (E207P, CQ transport at pH 4.5 / pH 6.0). Also, on PfCRT variant E232A (pH 4.5, single replicates, Fig 1d left), the “E232A transport activity pH 4.5” value is 1.05 pmol oocyte-1 h-1 and 1.32 pmol oocyte-1 h-1 and 1.01 pmol oocyte-1 h-1 and 0.62 pmol oocyte-1 h-1 and 1.37 pmol oocyte-1 h-1. Moreover, the “E232A R-value” at PfCRT variant E232A (pH 4.5 vs pH 6.0, Fig 1d left) is 0.65 and 0.81 and 0.48 and 0.80. For the same molecule, the “E232A transport activity pH 6.0” value at PfCRT variant E232A (pH 6.0, single replicates, Fig 1d left) was 1.62 pmol oocyte-1 h-1 and 1.63 pmol oocyte-1 h-1 and 2.09 pmol oocyte-1 h-1 and 1.28 pmol oocyte-1 h-1 and 1.71 pmol oocyte-1 h-1. In addition, in the assay with PfCRT variant E207P (setting [1]), the “Activity at pH 6.0” value was 2.45 ± 0.21 pmol h-1 oocyte-1. Also, the “E207P transport activity pH 4.5” value in the assay on PfCRT variant E207P (pH 4.5, individual replicates, Fig 6b) is 2.94 pmol oocyte-1 h-1 and 1.66 pmol oocyte-1 h-1 and 2.34 pmol oocyte-1 h-1. The “E207P transport activity pH 6.0” value in the assay with PfCRT variant E207P (pH 6.0, individual replicates, Fig 6b) was 2.94 pmol oocyte-1 h-1 and 2.08 pmol oocyte-1 h-1 and 2.34 pmol oocyte-1 h-1. Further, the E207PR-value in the assay on PfCRT variant E207P (ratio of activity pH 4.5 / pH 6.0) was 1.00 and 0.80.
